Converted amounts (≈) assume the structure as drawn.
Experiments:
Format in all cases: cell-based
[1] = tested on: Staph. 48N; assay: MIC values, Staph. 48N; settings: 37° C., about 20 hours
Experimental: (§1) The minimum inhibitory concentrations (MIC) were determined by the series dilution method on Iso-Sensitest agar (Oxoid). A series of agar plates which contained concentrations of the active compound which decreased by two-fold dilution in each case were prepared for each test substance. The agar plates were inoculated with a Multipoint inoculator (Denley). Overnight cultures of the pathogens which had been diluted beforehand such that each inoculation point contained about 10^4 colony-forming particles were used for the inoculation. The inoculated agar plates were incubated at 37° C. and the germ growth was read off after about 20 hours. The MIC value (μg/ml) indicates the lowest concentration of active compound at which no growth was detectable with the naked eye.
(§2) The MIC values were determined with the aid of the microdilution method in BH medium. Each test substance was dissolved in the nutrient medium. A concentration series of the test substances was prepared in the microtiter plate by serial dilution. Overnight cultures of the pathogens which were diluted 1:250 beforehand in the nutrient medium were used for the inoculation. In each case 100 μl of inoculation solution were added to 100 μl of the diluted nutrient solutions containing the active compound.

[2] = tested on: Klebs. 57 USA; assay: MIC values, Klebs. 57 USA; settings: 37° C., about 20 hours
Experimental: as §1, §2

[3] = tested on: Staph. 133; assay: MIC values, Staph. 133; settings: 37° C., about 20 hours
Experimental: as §1, §2

[4] = tested on: E. coli Neumann; assay: MIC values, E. coli Neumann; settings: Escherichia coli, 37° C., about 20 hours
Experimental: as §1, §2

[5] = tested on: Staph. 9TV; assay: MIC values, Staph. 9TV; settings: 37° C., about 20 hours
Experimental: as §1, §2

[6] = tested on: Staph 25701; assay: MIC values, Staph 25701; settings: 37° C., about 20 hours
Experimental: as §1, §2

[7] = tested on: Psdm. Bonn; assay: MIC values, Psdm. Bonn; settings: 37° C., about 20 hours
Experimental: as §1, §2

Structure (SMILES)	MIC [1]	MIC [2]	MIC [3]	MIC [4]	MIC [5]	MIC [6]	MIC [7]
CC(=O)NC[C@H]1CN(c2ccc(-c3ccc(C)cc3)cn2)C(=O)O1 [Example 36, (5S)-3-[5-(4-Methylphenyl)pyridin-2-yl]-5-acetyl-aminomethyl-oxazolidin-2-one]	4 µg/mL (≈ 12.3 µM)	> 32 µg/mL	4 µg/mL (≈ 12.3 µM)	> 32 µg/mL	1 µg/mL (≈ 3.07 µM)	4 µg/mL (≈ 12.3 µM)	> 32 µg/mL
CC(=O)NC[C@H]1CN(c2ccc(-c3ccccc3)cn2)C(=O)O1 [Example 37]	1 µg/mL (≈ 3.21 µM)	> 32 µg/mL	1 µg/mL (≈ 3.21 µM)	> 32 µg/mL	0.5 µg/mL (≈ 1.61 µM)	1 µg/mL (≈ 3.21 µM)	> 32 µg/mL
CC(=O)NC[C@H]1CN(c2ccc(-c3ccc(C=O)cc3)cn2)C(=O)O1 [Example 40]	1 µg/mL (≈ 2.95 µM)	> 32 µg/mL	1 µg/mL (≈ 2.95 µM)	> 32 µg/mL	0.5 µg/mL (≈ 1.47 µM)	1 µg/mL (≈ 2.95 µM)	> 32 µg/mL
CC(=O)NC[C@H]1CN(c2ccc(-c3ccc(C(C)=O)s3)cn2)C(=O)O1 [Example 43]	0.5 µg/mL (≈ 1.39 µM)	> 32 µg/mL	0.25 µg/mL (≈ 0.696 µM)	> 32 µg/mL	0.25 µg/mL (≈ 0.696 µM)	0.5 µg/mL (≈ 1.39 µM)	> 32 µg/mL
CC(=O)NC[C@H]1CN(c2ccc(-c3cccc([N+](=O)[O-])c3)cn2)C(=O)O1 [Example 48]	2 µg/mL (≈ 5.61 µM)	> 64 µg/mL	4 µg/mL (≈ 11.2 µM)	> 64 µg/mL	1 µg/mL (≈ 2.81 µM)	2 µg/mL (≈ 5.61 µM)	> 64 µg/mL
CC(=O)NC[C@H]1CN(c2ccc3cccc(-c4ccc(C)cc4)c3n2)C(=O)O1 [Example 59]	2 µg/mL (≈ 5.33 µM)	> 32 µg/mL	1 µg/mL (≈ 2.66 µM)	> 32 µg/mL	1 µg/mL (≈ 2.66 µM)	1 µg/mL (≈ 2.66 µM)	> 32 µg/mL

More lines, in order of falling MIC [1], values ahead:

MIC [1]	MIC [2]	MIC [3]	MIC [4]	MIC [5]	MIC [6]	MIC [7]	Structure (SMILES)
8 µg/mL (≈ 28 µM)	> 64 µg/mL	8 µg/mL (≈ 28 µM)	> 64 µg/mL	8 µg/mL (≈ 28 µM)	8 µg/mL (≈ 28 µM)		CC(=O)NC[C@H]1CN(c2ccc3ncccc3c2)C(=O)O1 [Example 29]
4 µg/mL (≈ 11.8 µM)	> 32 µg/mL	4 µg/mL (≈ 11.8 µM)	> 32 µg/mL	2 µg/mL (≈ 5.89 µM)	8 µg/mL (≈ 23.6 µM)	> 32 µg/mL	CC(=O)NC[C@H]1CN(c2ccc(-c3ccccc3C=O)cn2)C(=O)O1 [Example 38]
4 µg/mL (≈ 11.3 µM)	> 32 µg/mL	2 µg/mL (≈ 5.66 µM)	> 32 µg/mL	1 µg/mL (≈ 2.83 µM)	4 µg/mL (≈ 11.3 µM)	> 32 µg/mL	CC(=O)NC[C@H]1CN(c2ccc(-c3ccc(C(C)=O)cc3)cn2)C(=O)O1 [Example 41]
4 µg/mL (≈ 11.3 µM)	> 64 µg/mL	4 µg/mL (≈ 11.3 µM)	> 64 µg/mL	4 µg/mL (≈ 11.3 µM)	4 µg/mL (≈ 11.3 µM)		CC(=O)NC[C@H]1CN(c2ccc(-c3cccc(C(C)=O)c3)cn2)C(=O)O1 [Example 42]
4 µg/mL (≈ 11.6 µM)	> 32 µg/mL	2 µg/mL (≈ 5.79 µM)	> 32 µg/mL	2 µg/mL (≈ 5.79 µM)	2 µg/mL (≈ 5.79 µM)	> 32 µg/mL	CC(=O)NC[C@H]1CN(c2ccc(-c3csc(C=O)c3)cn2)C(=O)O1 [Example 44]
2 µg/mL (≈ 5.5 µM)	> 64 µg/mL	8 µg/mL (≈ 22 µM)	> 64 µg/mL	2 µg/mL (≈ 5.5 µM)	4 µg/mL (≈ 11 µM)	> 64 µg/mL	CC(=O)NC[C@H]1CN(c2ccc(-c3ccc(F)c(Cl)c3)cn2)C(=O)O1 [Example 46]
2 µg/mL (≈ 6.07 µM)	> 64 µg/mL	4 µg/mL (≈ 12.1 µM)	> 64 µg/mL	1 µg/mL (≈ 3.04 µM)	1 µg/mL (≈ 3.04 µM)	> 64 µg/mL	CC(=O)NC[C@H]1CN(c2ccc(-c3ccc(F)cc3)cn2)C(=O)O1 [Example 47]
0.5 µg/mL (≈ 1.47 µM)	> 32 µg/mL	0.25 µg/mL (≈ 0.737 µM)	> 32 µg/mL	0.125 µg/mL (≈ 0.368 µM)	0.5 µg/mL (≈ 1.47 µM)	> 32 µg/mL	CC(=O)NC[C@H]1CN(c2ccc(-c3cccc(C=O)c3)cn2)C(=O)O1 [Example 39]
